“And” between values parts separate entries of the source, which are not always exact repeats. Equal values may be shown once.
Test system: VA-ES-BJ tumor spheroid viability
Test: Anticancer human tumor VA-ES-BJ cell line growth inhibition;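 note: spheroids exposed to compounds for seven days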;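 for viability, T/C: percent of DMSO vehicle control viability so 100% = untreated growth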
Conditions: spheroids with HUVEC and MSC; for viability, T/C: stronger effect = lower value; active = viability on the fitted dose curve at most 10% of control; inactive = the rest
Procedure, shortened: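 Single agents and combinations were tested on spheroids built from tumor cells plus HUVEC and hMSC, at half-log dilutions starting at or near clinical Cmax, else 10 microM; final DMSO 0.25% (v/v).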

[1] = curve of first compound, second compound 30 pM
[2] = curve of first compound, second compound 94.9 pM
[3] = curve of first compound, second compound 0.0003 µM
[4] = curve of first compound, second compound 0.000949 µM
[5] = curve of first compound, second compound 0.003 µM
[6] = second compound 30 pM, first compound 0.0316 µM
[7] = second compound 30 pM, first compound 0.1 µM
[8] = second compound 30 pM, first compound 0.316 µM
[9] = second compound 30 pM, first compound 1 µM
[10] = second compound 30 pM, first compound 3.16 µM
[11] = second compound 30 pM, first compound 10 µM
[12] = second compound 94.9 pM, first compound 0.0316 µM
[13] = second compound 94.9 pM, first compound 0.1 µM
[14] = second compound 94.9 pM, first compound 0.316 µM
[15] = second compound 94.9 pM, first compound 1 µM
[16] = second compound 94.9 pM, first compound 3.16 µM
[17] = second compound 94.9 pM, first compound 10 µM
[18] = second compound 0.0003 µM, first compound 0.0316 µM
[19] = second compound 0.0003 µM, first compound 0.1 µM
[20] = second compound 0.0003 µM, first compound 0.316 µM
[21] = second compound 0.0003 µM, first compound 1 µM
[22] = second compound 0.0003 µM, first compound 3.16 µM
[23] = second compound 0.0003 µM, first compound 10 µM
[24] = second compound 0.000949 µM, first compound 0.0316 µM
[25] = second compound 0.000949 µM, first compound 0.1 µM
[26] = second compound 0.000949 µM, first compound 0.316 µM
[27] = second compound 0.000949 µM, first compound 1 µM
[28] = second compound 0.000949 µM, first compound 3.16 µM
[29] = second compound 0.000949 µM, first compound 10 µM
[30] = second compound 0.003 µM, first compound 0.0316 µM
[31] = second compound 0.003 µM, first compound 0.1 µM
[32] = second compound 0.003 µM, first compound 0.316 µM
[33] = second compound 0.003 µM, first compound 1 µM
[34] = second compound 0.003 µM, first compound 3.16 µM
[35] = second compound 0.003 µM, first compound 10 µM

COc1cc(C)[nH]c(=O)c1CN1CCc2c(Cl)cc(C(OC)C3COC3)c(Cl)c2C1=O (stereo not given) + COc1cc2c(cc1O)CCNC21CSC2c3c(OC(C)=O)c(C)c4c(c3C(COC1=O)N1C(O)C3Cc5cc(C)c(OC)c(O)c5C(C21)N3C)OCO4
981 nM: IC50 [2]
inactive: viability, T/C [6] 75.7% | viability, T/C [7] 71.1% | viability, T/C [8] 58.6% | viability, T/C [9] 49.4% | viability, T/C [10] 45.2% | viability, T/C [11] 40.9% | viability, T/C [12] 66.9% | viability, T/C [13] 68.6% | viability, T/C [14] 59.3% | viability, T/C [15] 49% | viability, T/C [16] 43.1% | viability, T/C [17] 36.8% | viability, T/C [18] 38.5% | viability, T/C [19] 36.2% | viability, T/C [20] 33.1% | viability, T/C [21] 36.7% | viability, T/C [22] 27.2% | viability, T/C [23] 29.4%
active: viability, T/C [24] 2.44% | viability, T/C [25] 2.53% | viability, T/C [26] 2.69% | viability, T/C [27] 2.75% | viability, T/C [28] 2.25% | viability, T/C [29] 1.84% | viability, T/C [30] 1.25% | viability, T/C [31] 1.11% | viability, T/C [32] 1.37% | viability, T/C [33] 1.01% | viability, T/C [34] 1.1% | viability, T/C [35] 2%
933 nM: IC50 [1]
< 31.6 nM: IC50 [3] | IC50 [4] | IC50 [5]

COc1cc2c(cc1O)CCNC21CSC2c3c(OC(C)=O)c(C)c4c(c3C(COC1=O)N1C(O)C3Cc5cc(C)c(OC)c(O)c5C(C21)N3C)OCO4 (stereo not given)
0.256 nM [middle of 10 runs]: IC50 (compound alone, run of 12/12/2019)
active: viability, T/C (compound 0.000949 µM) 2.96% [middle of 10 runs] | viability, T/C (compound 0.003 µM) 1.18% [middle of 9 runs]

COc1ccc([C@@H](O)c2cc(-c3ncnc4cc(N5CCOCC5)ccc34)c(F)cc2Cl)nn1 + Cn1nnc2c(C(N)=O)ncn2c1=O
477 nM: IC50 (curve of first compound, second compound 1 µM)
547 nM: IC50 (curve of first compound, second compound 100 µM)
inactive: viability, T/C (second compound 1 µM, first compound 0.0316 µM) 94.9% | viability, T/C (second compound 1 µM, first compound 0.1 µM) 79.5% | viability, T/C (second compound 1 µM, first compound 0.316 µM) 56.8% | viability, T/C (second compound 1 µM, first compound 1 µM) 37.9% | viability, T/C (second compound 1 µM, first compound 3.16 µM) 15.8% | viability, T/C (second compound 3.16 µM, first compound 0.0316 µM) 92.4% | viability, T/C (second compound 3.16 µM, first compound 0.1 µM) 89.6% | viability, T/C (second compound 3.16 µM, first compound 0.316 µM) 70% | viability, T/C (second compound 3.16 µM, first compound 1 µM) 31% | viability, T/C (second compound 3.16 µM, first compound 3.16 µM) 13.2% | viability, T/C (second compound 10 µM, first compound 0.0316 µM) 92.5% | viability, T/C (second compound 10 µM, first compound 0.1 µM) 84.4% | viability, T/C (second compound 10 µM, first compound 0.316 µM) 63.5% | viability, T/C (second compound 10 µM, first compound 1 µM) 41.5% | viability, T/C (second compound 10 µM, first compound 3.16 µM) 11.4% | viability, T/C (second compound 31.6 µM, first compound 0.0316 µM) 85.6% | viability, T/C (second compound 31.6 µM, first compound 0.1 µM) 83% | viability, T/C (second compound 31.6 µM, first compound 0.316 µM) 65.8% | viability, T/C (second compound 31.6 µM, first compound 1 µM) 38.8% | viability, T/C (second compound 31.6 µM, first compound 3.16 µM) 16.1% | viability, T/C (second compound 100 µM, first compound 0.0316 µM) 96.2% | viability, T/C (second compound 100 µM, first compound 0.1 µM) 98.1% | viability, T/C (second compound 100 µM, first compound 0.316 µM) 61.5% | viability, T/C (second compound 100 µM, first compound 1 µM) 35% | viability, T/C (second compound 100 µM, first compound 3.16 µM) 13.9%
602 nM: IC50 (curve of first compound, second compound 10 µM)
active: viability, T/C (second compound 1 µM, first compound 10 µM) 7.65% | viability, T/C (second compound 3.16 µM, first compound 10 µM) 7.49% | viability, T/C (second compound 10 µM, first compound 10 µM) 7.61% | viability, T/C (second compound 31.6 µM, first compound 10 µM) 7.46% | viability, T/C (second compound 100 µM, first compound 10 µM) 8.08%
623 nM: IC50 (curve of first compound, second compound 31.6 µM)
574 nM: IC50 (curve of first compound, second compound 3.16 µM)

CC1COCCN1c1cc(-c2ccnn2C)c2ccnc(-c3ccn[nH]3)c2n1 (stereo not given) + COc1cc2c(cc1O)CCNC21CSC2c3c(OC(C)=O)c(C)c4c(c3C(COC1=O)N1C(O)C3Cc5cc(C)c(OC)c(O)c5C(C21)N3C)OCO4
inactive: viability, T/C [6] 38% | viability, T/C [7] 19.5% | viability, T/C [12] 26% | viability, T/C [13] 21.3% | viability, T/C [14] 8.87% | viability, T/C [18] 16.9% | viability, T/C [19] 12%
active: viability, T/C [8] 8.68% | viability, T/C [9] 5.69% | viability, T/C [10] 4.98% | viability, T/C [11] 4.49% | viability, T/C [15] 4.99% | viability, T/C [16] 5.01% | viability, T/C [17] 4.7% | viability, T/C [20] 8.21% | viability, T/C [21] 5.23% | viability, T/C [22] 5.32% | viability, T/C [23] 5.04% | viability, T/C [24] 2.61% | viability, T/C [25] 2.73% | viability, T/C [26] 2.01% | viability, T/C [27] 1.53% | viability, T/C [28] 0.5% | viability, T/C [29] 0.13% | viability, T/C [30] 1.26% | viability, T/C [31] 1.04% | viability, T/C [32] 0.77% | viability, T/C [33] 1% | viability, T/C [34] 0.35% | viability, T/C [35] 0.56%
< 31.6 nM: IC50 [1] | IC50 [2] | IC50 [3] | IC50 [4] | IC50 [5]

CNCc1ccc(-c2cc(-c3nc(-c4ccc(S(=O)(=O)C(C)C)cc4)cnc3N)on2)cc1
inactive: viability, T/C (compound 0.00949 µM) 77.7% and 86.1% and 87.9% | viability, T/C (compound 0.03 µM) 77.8% and 85% and 86.1% | viability, T/C (compound 0.0949 µM) 76% and 74.3% and 83% | viability, T/C (compound 0.3 µM) 48.9% and 63.3% and 41%
289 nM and 399 nM and 235 nM: IC50 (curve of compound)
active: viability, T/C (compound 3 µM) 2.21% and 6.18% and 1.41%
9.28% and 11.6% and 7.52%: viability, T/C (compound 0.949 µM)

Source: PubChem BioAssay AID1845217 (Molecular Pharmacology Branch, DTP, NCI, 2023)
